Paper PMC6216040, “Repurposing of an old drug: In vitro and in vivo efficacies of buparvaquone against Echinococcus multilocularis” (International Journal for Parasitology: Drugs and Drug …, 2018)
Like-named read-outs stand apart in the source and are kept apart here.

Tested on: E. multilocularis metacestodes
Test: PGI-assay: drug-induced damage on in vitro cultured metacestodes (Pathogen Box screening cascade and EC50)
Assay type: cell-based, Echinococcus multilocularis
Details: for PGI release, % of the Tx-100 control, 5d / PGI release, % of the Tx-100 control, 12d / cytotoxicity at 10 µM: 10 µM, singlets; for cytotoxicity at 10 µM: Echinococcus multilocularis
[1] = 120 h, 5 days of incubation, read-out: PGI release, % of the Tx-100 control, 5d
[2] = 288 h, 12 days of incubation, read-out: PGI release, % of the Tx-100 control, 12d
[3] = confirmatory screening at 10 µM in triplicates, 5 days of incubation, values as % of Tx-100 control
[4] = confirmatory screening at 10 µM in triplicates, 12 days of incubation, values as % of Tx-100 control

Structure (SMILES) | PGI release, % of the Tx-100 control, 5d (5 days of incubation) [%] | PGI release, % of the Tx-100 control, 12d (12 days of incubation) [%] | further results
CCCc1ccc(S(=O)(=O)Nc2ccc(CN3CCN(CC4CC4)CC3)cc2)cc1 [MMV688125] | -0.08 | -1.69 | 
CS(=O)(=O)c1cccc(-c2cnc3[nH]cc(-c4ccc(CCC(=O)O)cc4)c3c2)c1 [MMV026020] | -2.92 | -0.12 | 
COc1ccc(CCN2CCC(NCc3cccc(N(C)C)c3)CC2)cc1 [MMV011511] | 1.21 | 4.25 | 
C[C@H]1c2cccc(O)c2C(=O)C2=C(O)[C@]3(O)C(=O)C(C(N)=O)=C(O)[C@@H](N(C)C)[C@@H]3[C@@H](O)[C@@H]21 [MMV000011, Doxycycline, reference compound] |  |  | cytotoxicity at 10 µM [1]: 3.26%; cytotoxicity at 10 µM [2]: -0.0343%
FC(F)(F)c1cccc(-c2nc3c(NCc4ccncc4)nccc3[nH]2)c1 [MMV032967] | 0.25 | -2.81 | 
FC(F)(F)c1ccc(N(c2cccnc2)C2CCN(c3ccc(C(F)(F)F)cn3)CC2)cc1 [MMV689243] | 0.34 | 10.04 | 
CC(C)c1ncc(-c2ccncc2)c(C2CCC(CNC(=O)c3cccnc3)CC2)n1 (stereo not shown) [MMV676442] | -0.58 | 4.83 | 
Cc1cc(OCC(=O)NCc2ccccc2)c2cc(Br)ccc2n1 [MMV687747] | -0.47 | 1.30 | 
Cc1nc(-c2ccccn2)nc(NCCc2ccc(S(C)(=O)=O)cc2)c1Cl [MMV658993] | -0.19 | 1.18 | 
CC(C)(C)OC(=O)N1CCC(Cn2nc(-c3cnc4ccccc4c3)c3c(N)ncnc32)CC1 [MMV688364] | 0.11 | -0.13 | 
CCCCN(CCCC)c1c(C#N)cc(S(=O)(=O)Nc2ccccc2)cc1C#N [MMV688467] | 17.50 | 35.72 | PGI release, % of Tx-100 control, average, 5d [3]: 4.92%; PGI release, % of Tx-100 control, average, 12d [4]: 11.29%
Cc1cc(C)cc(COc2ccc3c(C)c(CCC(=O)O)c(=O)oc3c2C)c1 [MMV676476] | 0.11 | 10.97 | 
CC1CC1C(=O)NC1CCN(CC2(c3ccccc3)CCCCC2)CC1 (stereo not shown) [MMV020120] | -0.34 | -0.45 | 
c1ccc(C[C@@H]2CN(c3nccc(Oc4ccc(-n5ccnc5)cc4)n3)CCN2)cc1 [MMV687749] | 5.87 | 6.61 | 
CCc1ccc(S(=O)(=O)Nc2cc(CN3CCN(CCC(C)C)CC3)ccc2C)cc1 [MMV688124] | -0.0233 | -0.17 | 
COc1ccc(N(CCc2cccc(C)n2)C(=O)C2CCCCC2)cc1 [MMV675996] | 0.13 | -0.16 | 
NC(N)=Nc1ccc(-c2ccc(-c3ccc(N=C(N)N)cc3Cl)o2)c(Cl)c1 [MMV688179] | -4.57 | 19.83 | 
COc1cc(OC)cc(C(=O)NCC2Cc3cc(Cl)cc(-c4ccncc4)c3O2)c1 (stereo not shown) [MMV007471] | 1.94 | 7.77 | 
CO[C@@H](C(=O)N1Cc2n[nH]c(NC(=O)c3ccc(N4CCN(C)CC4)cc3)c2C1)c1ccccc1 [MMV676600, Danusertib, reference compound] |  |  | cytotoxicity at 10 µM [1]: -0.38%; cytotoxicity at 10 µM [2]: -0.2%
CC(C)(C)n1nc(Cc2cccc3ccccc23)c2c(N)ncnc21 [MMV676599] | -0.93 | -0.99 | 
CCCCOC(=O)Nc1cc2[nH]c(C3CCCCC3)nc2cc1N1CCCC1 [MMV687730] | 5.43 | 56.57 | PGI release, % of Tx-100 control, average, 5d (1 µM, triplicates, 5 days of incubation): 3.65%; PGI release, % of Tx-100 control, average, 12d (1 µM, triplicates, 12 days of incubation): -3.14%; activity in the screen at 10 μM (confirmed in triplicates, >20% relative PGI release) (10 μM, 5 and 12 days): active; PGI release, % of Tx-100 control, average, 5d [3]: 22.60%; PGI release, % of Tx-100 control, average, 12d [4]: 45.66%
CN1CCCN(C(c2ccccc2)c2ccc(Cl)cc2)CC1 (stereo not shown) [MMV004168] | -0.40 | 76.56 | PGI release, % of Tx-100 control, average, 5d [3]: -1.18%; PGI release, % of Tx-100 control, average, 12d [4]: 4.34%
CC(=O)NC[C@H]1CN(c2ccc(N3CCOCC3)c(F)c2)C(=O)O1 [MMV687803, Linezolid, reference compound] |  |  | cytotoxicity at 10 µM [1]: -0.58%; cytotoxicity at 10 µM [2]: 0.38%
Cc1ccc2c(c1C)NC(=O)C21NN=C(c2ccccc2)S1 (stereo not shown) [MMV019189] | 4.07 | -1.23 | 
O=C(Nc1nc(-c2ccccn2)cs1)C1CC1c1ccccc1F (stereo not shown) [MMV1028806] | -2.32 | -0.32 | 
Nc1c2c(nc3sc4c(c13)CCCC4)CCCC2 [MMV676588] | -0.72 | 10.95 | 

Structure (SMILES) | PGI release, % of the Tx-100 control, 5d (5 days of incubation) [%] | PGI release, % of the Tx-100 control, 12d (12 days of incubation) [%] | further results
Cc1cc(Nc2ccncc2)n2nc(C)c(-c3ccccc3Cl)c2n1 [MMV016136] | 0.97 | 2.16 | 
c1cncc(NCc2ccc(-c3cc4ccncc4cc3OC3CCNCC3)s2)c1 [MMV023969] | -3.87 | -3.02 | 
Nc1ccc2ncnc(Nc3ccc(OCc4cccc(F)c4)c(Cl)c3)c2c1 [MMV688273] | -1.47 | -4.16 | 
CCOc1ccc(OCC(=O)Nc2cc(C)cc(C)c2)cc1 [MMV676470] | -0.69 | -0.73 | 
COc1ccc(C(=N)N)cc1-c1cn(-c2ccc(C(=N)N)cc2)nn1 [MMV675998] | -0.22 | 0.24 | 
O=C(NCCc1ccccc1)c1cc(-c2cccnc2)cnc1NCC1CC1 [MMV026490] | -0.0463 | -0.43 | 
CC(C)n1ncc2c(C(=O)NCC(c3cccs3)N3CCOCC3)cc(-c3ccccc3)nc21 (stereo not shown) [MMV676406] | 0.95 | 2.38 | 
CC1CCCN(C(=O)C(C)Nc2cc(Cl)ccc2N2CCOCC2)C1 (stereo not shown) [MMV020388] | -0.77 | -1.83 | 
O=C1Nc2ccc(Br)cc2C12NCCc1c2[nH]c2ccccc12 (stereo not shown) [MMV006239] | 0.78 | 2.27 | 
OCCc1ccc(Nc2nccc(-c3nnc4ccccn34)n2)cc1 [MMV028694] | 1.98 | 1.79 | 
CS(=O)(=O)Cc1nc2ccccc2oc1=O [MMV553002] | -3.93 | -1.57 | 
CN1CCCC1CCO[C@](C)(c1ccccc1)c1ccc(Cl)cc1 (stereo partly shown) [MMV637229] | 4.53 | 10.67 | 
CC(C)n1nc(-c2cc3c(Cl)cccc3[nH]2)c2c(N)ncnc21 [MMV688417] | -4.81 | -2.43 | 
Cc1cccc(Cn2ccc(NC(=O)c3ccc4c(c3)OCO4)n2)c1 [MMV676386] | 0.18 | -0.91 | 
Cc1nc(-c2cccc(NCc3ccccc3)c2)[nH]c1C [MMV023227] | 0.40 | 0.67 | 
N#Cc1ccc(-c2ccc(OCC(N)=O)cc2)cc1 [MMV053220] | -4.06 | -1.40 | 
CC1=Nc2ccc(Cl)cc2C(O)(c2ccc(C)cc2)N1CCN1CCCCC1 (stereo not shown) [MMV688279] | 0.73 | 1.56 | 
COc1cc(-c2cc(-c3ccc(S(C)(=O)=O)cc3)cnc2N)ccc1O [MMV010576] | -0.22 | -2.40 | 
Cc1nc(-c2ccccn2)nc(N2CCC(Cc3ccccc3)C2)c1Cl (stereo not shown) [MMV659004] | 11.75 | 58.47 | PGI release, % of Tx-100 control, average, 5d [3]: 2.44%; PGI release, % of Tx-100 control, average, 12d [4]: 11.08%
O=C(Nc1cccc(-c2ccc(NCCCN3CCCC3)nc2)c1)c1ccccc1 [MMV023953] | -0.23 | -3.47 | 
Cc1ccc2nc(Cl)c(CNCc3cccs3)cc2c1 [MMV676439] | -0.82 | 3.19 | 
Cc1ccc(S(=O)(=O)N2CCN(C(=O)c3cc(-c4ccccc4)n[nH]3)CC2)cc1 [MMV019742] | 0.16 | 0.57 | 
CN1CCN(S(=O)(=O)c2ccc(-c3ccc4c(Nc5ncc(Cl)cn5)ccnc4c3)cc2)CC1 [MMV688283] | 0.90 | -1.47 | 
Cc1nn(C)c(C)c1NS(=O)(=O)c1c(Cl)cc(-c2ccnc(N3CCNCC3)c2)cc1Cl [MMV688180] | -0.14 | 0.11 | 
CC(Oc1cccc(Cl)c1)C(=O)Nc1ccc2oc(-c3ccncc3)nc2c1 (stereo not shown) [MMV688472] | -0.36 | 0.44 | 
N#Cc1nc(-c2ccccc2)oc1S(=O)(=O)c1ccc(Cl)cc1 [MMV676412] | 0.33 | 0.62 | 
